Results reported in patent publication US12624018B1, “Inhibitors of RIPK2 and medical uses thereof” (Odyssey Therapeutics, Inc., priority 2022, dated 2026).

Biological target: T1, RIPK2 enzyme (Homo sapiens, UniProt O43353)
T1 construct: purchased Carna 09-128
Experiment: RIPK2 inhibition (ADP-Glo Kinase Assay)
Assay type: biochemical
Details: RIPK2 5 nM, ATP 150 μM, MBP substrate, read-out: RIPK2 IC50
Summary of the method: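 Human RIPK2 (5 nM) preincubated with compound 30 min at room temperature in 50 mM HEPES pH 7.5, 10 mM MgCl2, 2 mM DTT, 1 mM EGTA, 0.01% Brij-35, 0.05% BSA; native swine MBP as substrate. ADP formed quantified by ADP-Glo luminescence; percent inhibition relative to DMSO and no-enzyme controls.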

T1 sequence (O43353 1-299 limits assumed): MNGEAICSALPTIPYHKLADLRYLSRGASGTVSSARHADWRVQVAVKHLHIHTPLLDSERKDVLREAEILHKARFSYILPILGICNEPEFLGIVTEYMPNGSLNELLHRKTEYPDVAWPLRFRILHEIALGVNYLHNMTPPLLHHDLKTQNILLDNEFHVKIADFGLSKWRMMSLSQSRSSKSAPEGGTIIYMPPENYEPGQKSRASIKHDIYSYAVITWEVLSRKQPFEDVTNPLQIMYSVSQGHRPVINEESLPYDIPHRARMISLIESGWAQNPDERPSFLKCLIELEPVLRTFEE

SMILES | IC50
CN1CCC(COc2ccc3ncnc(Oc4cnc(CC(=O)Nc5cnn(C(C)(C)C)c5)c(F)c4)c3c2)CC1 [Compound 61, N-(1-(tert-butyl)-1H-pyrazol-4-yl)-2-(3-fluoro-5-((6-((1-methylpiperidin-4-yl)methoxy)quinazolin-4-yl)oxy)pyridin-2-yl)acetamide] | 13.3 nM
CC(C)(C)n1cc(NC(=O)Cc2ccc(Oc3ccnc4ccc(S(C)(=N)=O)cc34)c(Cl)c2)cn1 (single isomer, unassigned) [Compound 196, N-(1-(tert-butyl)-1H-pyrazol-4-yl)-2-(3-chloro-4-((6-(S-methylsulfonimidoyl)quinolin-4-yl)oxy)phenyl)acetamide] | < 2.5 nM
Cc1cc(CC(=O)Nc2cnn(C(C)(C)C)c2)ccc1Oc1ccnc2ccc(OC[C@H]3CCNC3)cc12 [Compound 193, (S)-N-(1-(tert-butyl)-1H-pyrazol-4-yl)-2-(3-methyl-4-((6-(pyrrolidin-3-ylmethoxy)quinolin-4-yl)oxy)phenyl) acetamide] | < 2.5 nM
Cc1cc(CC(=O)Nc2cnn(C(C)(C)C)c2)c(F)cc1Oc1ccnc2ccc(P(C)(C)=O)cc12 [Compound 381, N-(1-(tert-butyl)-1H-pyrazol-4-yl)-2-(4-((6-(dimethylphosphoryl)quinolin-4-yl)oxy)-2-fluoro-5-methylphenyl) acetamide] | < 2.5 nM
Cc1cc(CC(=O)Nc2cnn(C(C)(C)C)c2)ccc1Oc1ccnc2ccc(S(=O)(=O)C3CCNCC3)cc12 [Compound 311, N-(1-(tert-butyl)-1H-pyrazol-4-yl)-2-(3-methyl-4-((6-(piperidin-4-ylsulfonyl)quinolin-4-yl)oxy)phenyl)acetamide] | < 2.5 nM
Cc1cc(CC(=O)Nc2cnn(C(C)(C)C)c2)c(F)cc1Oc1ccnc2ccc(CN3CCNCC3)cc12 [Compound 419, N-(1-(tert-butyl)-1H-pyrazol-4-yl)-2-(2-fluoro-5-methyl-4-((6-(piperazin-1-ylmethyl)quinolin-4-yl)oxy)phenyl)acetamide] | < 2.5 nM
Cc1cc(CC(=O)Nc2cnn(C(C)(C)C)c2)c(F)cc1Oc1ccnc2ccc(N3CCOC3=O)cc12 [Compound 414, N-(1-(tert-butyl)-1H-pyrazol-4-yl)-2-(2-fluoro-5-methyl-4-((6-(2-oxooxazolidin-3-yl)quinolin-4-yl)oxy)phenyl) acetamide] | < 2.5 nM
Cc1cc(CC(=O)Nc2cnn(C(C)(C)C)c2)ccc1Oc1ncnc2ccc(OC3CCNCC3)cc12 [Compound 85, N-(1-(tert-butyl)-1H-pyrazol-4-yl)-2-(3-methyl-4-((6-(piperidin-4-yloxy)quinazolin-4-yl)oxy)phenyl) acetamide] | 5.1 nM
CC(C)(C)n1cc(NC(=O)Cc2ccc(Oc3ccnc4ccc(S(=O)(=O)C5COC5)cc34)cc2F)cn1 [Compound 132, N-(1-(tert-butyl)-1H-pyrazol-4-yl)-2-(2-fluoro-4-((6-(oxetan-3-ylsulfonyl)quinolin-4-yl)oxy)phenyl)acetamide] | < 2.5 nM
CN1CCN(c2ccc3nccc(Oc4ccc(CC(=O)Nc5cnn(C(C)(C)C)c5)c(F)c4)c3c2)C(=O)C1 [Compound 156, N-(1-(tert-butyl)-1H-pyrazol-4-yl)-2-(2-fluoro-4-((6-(4-methyl-2-oxopiperazin-1-yl)quinolin-4-yl)oxy)phenyl) acetamide] | 4.5 nM
Cc1cc(CC(=O)Nc2cnn(C(C)(C)C)c2)ccc1Oc1ccnc2ccc(O[C@H]3CC[C@H](N)CC3)cc12 [Compound 122, 2-(4-((6-(((1r,4r)-4-aminocyclohexyl)oxy)quinolin-4-yl)oxy)-3-methylphenyl)-N-(1-(tert-butyl)-1H-pyrazol-4-yl)acetamide] | < 2.5 nM
C[S+]([O-])c1ccc2nccc(Oc3ccc(CC(=O)Nc4cnn(C(C)(C)C)c4)c(F)c3)c2c1 (centres unmarked) [Compound 45, N-(1-(tert-butyl)-1H-pyrazol-4-yl)-2-(2-fluoro-4-((6-(methylsulfinyl)quinolin-4-yl)oxy)phenyl)acetamide] | < 2.5 nM
Cc1c(Oc2ccnc3ccc(C(=O)NC4COC4)cc23)ccc(CC(=O)Nc2cnn(C(C)(C)C)c2)c1F [Compound 400, 4-(4-(2-((1-(tert-butyl)-1H-pyrazol-4-yl)amino)-2-oxoethyl)-3-fluoro-2-methyl-phenoxy)-N-(oxetan-3-yl)quinoline-6-carboxamide] | < 2.5 nM
Cc1c(Oc2ccnc3ccc(S(=O)(=O)N(C)CCO)cc23)ccc(CC(=O)Nc2cnn(C(C)(C)C)c2)c1F [Compound 275, N-(1-(tert-butyl)-1H-pyrazol-4-yl)-2-(2-fluoro-4-((6-(N-(2-hydroxyethyl)-N-methylsulfamoyl)quinolin-4-yl)oxy)-3-methylphenyl)acetamide] | < 2.5 nM
Cc1cc(CC(=O)Nc2cnn(C(C)(C)C)c2)c(F)cc1Oc1ccnc2ccc(CN3C[C@H]4C[C@@H]3CN4)cc12 [Compound 421, 2-(4-((6-(((1R,4R)-2,5-diazabicyclo[2.2.1]heptan-2-yl)methyl)quinolin-4-yl)oxy)-2-fluoro-5-methylphenyl)-N-(1-(tert-butyl)-1H-pyrazol-4-yl)acetamide] | < 2.5 nM
Cc1cc(CC(=O)Nc2cnn(C(C)(C)C)c2)ccc1Oc1ccnc2ccc(S(=O)(=O)CC3CC3)cc12 [Compound 205, N-(1-(tert-butyl)-1H-pyrazol-4-yl)-2-(4-((6-((cyclopropylmethyl)sulfonyl)quinolin-4-yl)oxy)-3-methylphenyl)acetamide] | < 2.5 nM

The next lines start with the values.

IC50 | SMILES
9.1 nM | CC(C)(C)n1cc(NC(=O)Cc2ccc(Oc3ccnc4ccc(S(C)(=O)=NC#N)cc34)cc2F)cn1 (centres unmarked) [Compound 71, N-(1-(tert-butyl)-1H-pyrazol-4-yl)-2-(4-((6-(N-cyano-S-methylsulfonimidoyl)quinolin-4-yl)oxy)-2-fluorophenyl)acetamide]
< 2.5 nM | CC(C)(C)n1cc(NC(=O)Cc2ccc(Oc3ccnc4ccc(S(C)(=O)=O)cc34)c(Cl)c2)cn1 [Compound 89, N-(1-(tert-butyl)-1H-pyrazol-4-yl)-2-(3-chloro-4-((6-(methylsulfonyl)quinolin-4-yl)oxy)phenyl)acetamide]
< 2.5 nM | Cc1c(Oc2ccnc3ccc(C(=O)NC4CC(C#N)C4)cc23)ccc(CC(=O)Nc2cnn(C(C)(C)C)c2)c1F (single isomer, unassigned) [Compound 404, 4-(4-(2-((1-(tert-butyl)-1H-pyrazol-4-yl)amino)-2-oxoethyl)-3-fluoro-2-methyl-phenoxy)-N-(-3-cyano-cyclobutyl) quinoline-6-carboxamide]
< 2.5 nM | COC(C)(C)c1cc(NC(=O)Cc2ccc(Oc3ccnc4ccc(S(C)(=O)=O)cc34)c(C)c2F)[nH]n1 [Compound 331, 2-(2-fluoro-3-methyl-4-((6-(methylsulfonyl)quinolin-4-yl)oxy)phenyl)-N-(5-(2-methoxypropan-2-yl)-1H-pyrazol-3-yl)acetamide]
< 2.5 nM | Cc1cc(CC(=O)Nc2cnn(C(C)(C)C)c2)c(F)cc1Oc1ccnc2ccc(C(=O)N3C[C@@H](C)N[C@@H](C)C3)cc12 [Compound 388, N-(1-(tert-butyl)-1H-pyrazol-4-yl)-2-(4-((6-((3R,5S)-3,5-dimethyl-piperazine-1-carbonyl)quinolin-4-yl)oxy)-2-fluoro-5-methyl-phenyl) acetamide]
< 2.5 nM | CNC(=O)c1cc2c(Oc3cc(F)c(CC(=O)Nc4cnn(C(C)(C)C)c4)cc3C)ncnc2cc1OC [Compound 440, 4-(4-(2-((1-(tert-butyl)-1H-pyrazol-4-yl)amino)-2-oxoethyl)-5-fluoro-2-methylphenoxy)-7-methoxy-N-methylquinazoline-6-carboxamide]
< 2.5 nM | Cc1cc(CC(=O)Nc2cnn(C(C)(C)C)c2)c(F)cc1Oc1ccnc2ccc(C(=O)N3CCOCC3)cc12 [Compound 378, N-(1-(tert-butyl)-1H-pyrazol-4-yl)-2-(2-fluoro-5-methyl-4-((6-(morpholine-4-carbonyl)quinolin-4-yl)oxy)phenyl) acetamide]
< 2.5 nM | Cc1cc(CC(=O)Nc2cnn(C(C)(C)C)c2)ccc1Oc1ccnc2ccc(OC3CCC(=O)NC3)cc12 (centres unmarked) [Compound 307, N-(1-(tert-butyl)-1H-pyrazol-4-yl)-2-(3-methyl-4-((6-((6-oxopiperidin-3-yl)oxy)quinolin-4-yl)oxy)phenyl) acetamide]
< 2.5 nM | Cc1cc(CC(=O)Nc2cnn(C(C)(C)C)c2)ccc1Oc1ccnc2ccc(S(=O)(=O)C3CCNC3)cc12 (single isomer, unassigned) [Compound 201, N-(1-(tert-butyl)-1H-pyrazol-4-yl)-2-(3-methyl-4-((6-(pyrrolidin-3-ylsulfonyl)quinolin-4-yl)oxy)phenyl)acetamide]
< 2.5 nM | Cc1c(Oc2ccnc3ccc(C(=O)NCC(F)(F)F)cc23)ccc(CC(=O)Nc2cnn(C(C)(C)C)c2)c1F [Compound 337, 4-(4-(2-((1-(tert-butyl)-1H-pyrazol-4-yl)amino)-2-oxoethyl)-3-fluoro-2-methyl-phenoxy)-N-(2,2,2-trifluoroethyl) quinoline-6-carboxamide]
14.4 nM | COc1ccc2ncnc(Oc3ccc(CC(=O)Nc4noc(C(C)(C)C)n4)c(F)c3)c2c1 [Compound 23, N-(5-(tert-butyl)-1,2,4-oxadiazol-3-yl)-2-(2-fluoro-4-((6-methoxy-quinazolin-4-yl)oxy)phenyl) acetamide]
< 2.5 nM | Cc1c(Oc2ccnc3ccc(C4CCNC4=O)cc23)ccc(CC(=O)Nc2cnn(C(C)(C)C)c2)c1F (single isomer, unassigned) [Compound 304, N-(1-(tert-butyl)-1H-pyrazol-4-yl)-2-(2-fluoro-3-methyl-4-((6-(2-oxopyrrolidin-3-yl)quinolin-4-yl)oxy)phenyl)acetamide]
< 2.5 nM | CNS(=O)(=O)c1ccc2nccc(Oc3ccc(CC(=O)Nc4cnn(C(C)(C)C)c4)cc3C)c2c1 [Compound 255, N-(1-(tert-butyl)-1H-pyrazol-4-yl)-2-(3-methyl-4-((6-(N-methylsulfamoyl)quinolin-4-yl)oxy)phenyl)acetamide]
